Structures can show the parent of a compound that is named as a salt. The source made the active and inactive calls.
Key:
[1] = biological target: T1, Protein skinhead-1 (Caenorhabditis elegans, UniProt P34707); assay type: functional
T1 sequence (P34707 whole entry): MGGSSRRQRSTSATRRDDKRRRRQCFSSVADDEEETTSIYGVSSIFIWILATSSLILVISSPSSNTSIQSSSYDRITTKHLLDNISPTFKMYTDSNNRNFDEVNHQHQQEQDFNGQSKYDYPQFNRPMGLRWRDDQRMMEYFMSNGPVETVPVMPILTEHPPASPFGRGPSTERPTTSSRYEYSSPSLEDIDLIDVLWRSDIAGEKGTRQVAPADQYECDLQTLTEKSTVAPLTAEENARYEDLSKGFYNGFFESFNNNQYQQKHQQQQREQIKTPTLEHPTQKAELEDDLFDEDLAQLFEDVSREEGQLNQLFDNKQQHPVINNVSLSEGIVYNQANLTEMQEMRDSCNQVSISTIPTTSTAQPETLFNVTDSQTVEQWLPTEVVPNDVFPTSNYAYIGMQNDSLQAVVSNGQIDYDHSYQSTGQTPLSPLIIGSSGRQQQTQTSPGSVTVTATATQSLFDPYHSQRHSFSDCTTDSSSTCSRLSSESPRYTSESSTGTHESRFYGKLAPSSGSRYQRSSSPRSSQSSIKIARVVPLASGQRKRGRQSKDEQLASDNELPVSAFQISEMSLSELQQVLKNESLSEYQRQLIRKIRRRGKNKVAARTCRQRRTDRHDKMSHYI

[2] = biological target: T2, Polyadenylate-binding protein 1 (Homo sapiens, UniProt P11940); test: PABP1 MLLE–PAM2 interaction inhibitors, dose response, miRNA deadenylation inhibitor project, biochemical, fluorescence polarization, Cy5-PAM2 peptide, secondary (AID 602260); assay type: functional; details: read-out: IC50_Mean
[3] = biological target: T2, Polyadenylate-binding protein 1; test: PABP1 MLLE–PAM2 binding inhibitor potency, dose response, biochemical, fluorescence polarization, FITC-PAM2 peptide (AID 602259); assay type: functional; details: read-out: IC50_Mean
[4] = tested on: H9c2; test: cells; assay type: functional, cell-based; details: Rattus norvegicus, H9c2, Myocardium;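 note: confirmatory concentration-response retest of ultra-high-throughput screening hits for modulation of myocardial damage; cell death induced by hydrogen peroxide oxidative stress; compound pretreatment for 60 min then peroxide exposure for 2 h; potency is for protecting the cells against peroxide damage rather than for killing them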
[5] = biological target: T3, Corticotropin-releasing factor receptor 2/Corticotropin-releasing factor-binding protein (Homo sapiens, UniProt P24387+Q13324); test: Dose Response confirmation of uHTS hits for small molecule antagonists of the CRF-binding protein and CRF-R2 receptor complex.; assay type: functional; details: read-out: IC50_Mean
T3 sequence (Q13324 whole entry): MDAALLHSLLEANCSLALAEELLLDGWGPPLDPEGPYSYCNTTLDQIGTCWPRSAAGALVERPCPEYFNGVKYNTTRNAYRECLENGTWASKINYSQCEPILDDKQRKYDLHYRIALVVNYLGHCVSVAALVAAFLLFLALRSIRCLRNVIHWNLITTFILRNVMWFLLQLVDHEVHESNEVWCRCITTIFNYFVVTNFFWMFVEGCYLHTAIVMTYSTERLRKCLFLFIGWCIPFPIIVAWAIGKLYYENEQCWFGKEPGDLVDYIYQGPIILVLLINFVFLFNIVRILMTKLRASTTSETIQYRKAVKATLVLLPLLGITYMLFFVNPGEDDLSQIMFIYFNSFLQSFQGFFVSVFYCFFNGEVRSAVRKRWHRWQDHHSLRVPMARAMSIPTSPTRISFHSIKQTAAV
T3 sequence (P24387 whole entry): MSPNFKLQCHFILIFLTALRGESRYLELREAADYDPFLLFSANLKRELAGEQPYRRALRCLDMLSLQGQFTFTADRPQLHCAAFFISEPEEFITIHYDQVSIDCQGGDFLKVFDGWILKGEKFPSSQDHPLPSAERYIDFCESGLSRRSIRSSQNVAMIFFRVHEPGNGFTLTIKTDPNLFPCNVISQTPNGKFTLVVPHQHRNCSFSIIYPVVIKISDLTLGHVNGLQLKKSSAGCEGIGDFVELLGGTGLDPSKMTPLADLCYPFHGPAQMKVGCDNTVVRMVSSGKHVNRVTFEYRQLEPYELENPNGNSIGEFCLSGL

[6] = biological target: T3, Corticotropin-releasing factor receptor 2/Corticotropin-releasing factor-binding protein; test: activators of CRF receptor 2 with binding protein – uHTS hits, confirmation (AID 602473); assay type: functional; details: read-out: EC50_Mean
[7] = microbe, parasite or virus in culture; assay type: functional; details: Mycobacterium tuberculosis
[8] = biological target: T4, Carboxy-terminal domain RNA polymerase II polypeptide A small phosphatase 1 (Homo sapiens, UniProt Q9GZU7); test: inhibitors of CTDSP1, concentration-response testing, biochemical assay, absorbance-based, actives from ultra-high-throughput screening (AID 540297); assay type: functional
T4 sequence (Q9GZU7 whole entry): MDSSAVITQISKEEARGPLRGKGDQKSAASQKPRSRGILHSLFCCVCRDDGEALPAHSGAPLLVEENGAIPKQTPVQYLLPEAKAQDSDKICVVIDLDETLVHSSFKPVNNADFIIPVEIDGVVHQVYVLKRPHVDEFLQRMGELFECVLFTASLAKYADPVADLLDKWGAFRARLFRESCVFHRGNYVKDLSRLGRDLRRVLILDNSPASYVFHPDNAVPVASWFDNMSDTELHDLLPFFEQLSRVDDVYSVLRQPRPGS

[9] = biological target: T5, Zinc finger protein mex-5 (Caenorhabditis elegans, UniProt Q9XUB2); test: MEX-5/TCR-2 RNA interaction inhibitors, dose response, biochemical, C. elegans, fluorescence polarization (AID 1960)
T5 sequence (Q9XUB2 whole entry): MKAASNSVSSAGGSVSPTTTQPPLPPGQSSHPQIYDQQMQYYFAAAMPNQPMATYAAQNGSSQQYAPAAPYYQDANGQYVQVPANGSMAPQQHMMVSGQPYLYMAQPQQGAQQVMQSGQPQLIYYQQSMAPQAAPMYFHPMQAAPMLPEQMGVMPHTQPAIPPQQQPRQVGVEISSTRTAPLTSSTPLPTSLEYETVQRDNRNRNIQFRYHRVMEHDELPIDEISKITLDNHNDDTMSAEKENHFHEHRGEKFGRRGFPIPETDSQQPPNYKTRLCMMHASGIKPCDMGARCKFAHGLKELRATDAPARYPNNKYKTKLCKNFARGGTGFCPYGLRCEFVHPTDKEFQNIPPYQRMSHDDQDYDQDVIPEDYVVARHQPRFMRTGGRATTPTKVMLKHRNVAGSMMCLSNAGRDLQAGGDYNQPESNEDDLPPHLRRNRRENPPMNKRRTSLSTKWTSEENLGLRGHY

[10] = biological target: T6, RNA-binding protein pos-1 (Caenorhabditis elegans, UniProt G5EF15); test: inhibitors of POS-1/mex-3 RNA binding, dose response, biochemical, fluorescence polarization (AID 1964);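 note: purified POS-1 fused to maltose binding protein made in E. coli; potency of compounds blocking POS-1 binding to fluorescent RNA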
T6 sequence (G5EF15 whole entry): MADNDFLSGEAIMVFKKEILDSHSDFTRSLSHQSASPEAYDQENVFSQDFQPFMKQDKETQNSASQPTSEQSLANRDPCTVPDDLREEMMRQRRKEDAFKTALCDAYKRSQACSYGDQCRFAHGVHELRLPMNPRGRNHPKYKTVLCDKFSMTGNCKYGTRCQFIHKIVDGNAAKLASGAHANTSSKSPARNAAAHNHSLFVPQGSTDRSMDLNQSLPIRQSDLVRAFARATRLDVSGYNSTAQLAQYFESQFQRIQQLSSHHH

[11] = NIH-3T3 fibroblast cytotoxicity, dose response, cytotoxicity control, cell-based, fluorescence, Alamar Blue, secondary assay (AID 2327); assay type: functional;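 note: NIH-3T3 mouse fibroblasts cultured with fluconazole at 8 µg/mL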
[12] = C. albicans growth with fluconazole, confirmation, fluorescence, retest (AID 2467); assay type: functional, cell-based
[13] = inhibitors of intracellular T. cruzi replication, confirmation, NIH3T3 host cells, beta-gal luminescence (AID 2044); assay type: functional, cell-based;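 note: intracellular parasites grown in NIH/3T3 mouse fibroblasts as host cells; luminescent beta-galactosidase reporter signal from transgenic T. cruzi replicating inside host cells; inhibitors lower the luminescence signal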
[14] = cytotoxicity toward NIH3T3 fibroblasts, dose response, counter-screen, cell-based, ATP luminescence, mouse fibroblasts (AID 2010); assay type: functional;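 note: cells exposed to compound for about 90 hours before reading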
[15] = control 3'UTR Renilla luciferase suppression, dose response, counter-screen for Shn3 inhibitor project, cell-based, Clone20-Shn3RL, cherry-picked (AID 624133); assay type: functional
[16] = biological target: Paired box protein Pax-8 (Homo sapiens, UniProt Q06710); test: inhibitors of PAX8-driven TPO luciferase reporter, dose response, RMG-I cells, cherry-pick (AID 687027); assay type: functional, cell-based;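 note: luciferase reporter driven by Pax8 target thyroperoxidase promoter measured by SteadyGlo luminescence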
[17] = HepG2 cell cytotoxicity, dose response, cytotoxicity control for Shn3 inhibitor project, CellTiter-Glo, cherry-picked (AID 624134); assay type: functional, cell-based
[18] = Shn3 3'UTR reporter inhibitors, dose response, cell-based, Clone20 osteoblasts, firefly luciferase, cherry-picked (AID 624132); assay type: functional;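 note: firefly luciferase luminescence from reporter carrying the Shn3 3'UTR in osteoblasts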

T2 sequence (P11940 whole entry): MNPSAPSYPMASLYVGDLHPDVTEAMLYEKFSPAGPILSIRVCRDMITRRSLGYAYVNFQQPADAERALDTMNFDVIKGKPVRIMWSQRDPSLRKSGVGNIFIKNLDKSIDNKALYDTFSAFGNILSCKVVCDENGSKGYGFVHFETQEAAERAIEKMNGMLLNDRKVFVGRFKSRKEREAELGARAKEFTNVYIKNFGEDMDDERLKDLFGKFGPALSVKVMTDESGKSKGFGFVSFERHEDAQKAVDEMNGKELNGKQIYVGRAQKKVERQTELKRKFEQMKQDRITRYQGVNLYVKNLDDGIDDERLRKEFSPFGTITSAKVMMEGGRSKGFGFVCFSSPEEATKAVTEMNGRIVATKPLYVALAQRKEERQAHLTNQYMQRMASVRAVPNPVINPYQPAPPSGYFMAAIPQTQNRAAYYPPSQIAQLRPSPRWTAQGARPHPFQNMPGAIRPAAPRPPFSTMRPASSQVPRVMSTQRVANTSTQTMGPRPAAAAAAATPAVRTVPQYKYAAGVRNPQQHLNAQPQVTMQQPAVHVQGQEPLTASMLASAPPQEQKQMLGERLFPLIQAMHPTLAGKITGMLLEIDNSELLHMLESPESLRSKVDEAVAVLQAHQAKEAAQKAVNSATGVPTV
Sequence of Paired box protein Pax-8 (Q06710 whole entry): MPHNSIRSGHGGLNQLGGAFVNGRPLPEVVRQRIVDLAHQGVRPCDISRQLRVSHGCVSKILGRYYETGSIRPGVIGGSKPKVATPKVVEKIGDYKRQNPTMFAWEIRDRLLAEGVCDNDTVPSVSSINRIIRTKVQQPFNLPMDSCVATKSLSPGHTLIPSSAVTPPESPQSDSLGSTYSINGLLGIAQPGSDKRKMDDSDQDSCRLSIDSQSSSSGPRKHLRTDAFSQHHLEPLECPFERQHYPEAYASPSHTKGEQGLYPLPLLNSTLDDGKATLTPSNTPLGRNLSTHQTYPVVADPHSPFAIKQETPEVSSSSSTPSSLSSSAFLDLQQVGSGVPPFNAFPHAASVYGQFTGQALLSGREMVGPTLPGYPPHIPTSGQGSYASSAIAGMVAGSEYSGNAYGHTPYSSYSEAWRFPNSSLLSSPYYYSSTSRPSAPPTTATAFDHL

CCc1ccc(NCc2nc(-c3ccccc3)no2)cc1
IC50 [1]: > 100 µM (inactive)

Cc1cc2cc(CN=C(S)Nc3ccc(OC(F)F)cc3)ccc2n1C
IC50 [2]: > 66 µM (inactive)
IC50 [1]: > 100 µM (inactive)
IC50 [3]: > 66 µM (inactive)

NC(=O)c1ccccc1OCC(=O)Nc1cccnc1Cl
IC50 [4]: 27.7 µM (active)

N#C/C(=C1\CCCN1)c1nc(O)c2ccccc2n1
IC50 [5]: > 47.1 µM (inactive)
EC50 [6]: > 53 µM (inactive)
IC50 [4]: 60.4 µM (inactive)

O=C(C1CC(=O)N(c2ccc3c(c2)OCCO3)C1)N1CCN(c2cccc(C(F)(F)F)c2)CC1 (stereo not given)
CC50 [7]: > 40 µM (active)

Cc1cc(=O)oc2cc(OCC(=O)N3CCN(C(=O)C4COc5ccccc5O4)CC3)c(Cl)cc12 (stereo not given)
IC50 [4]: > 79 µM (inactive)

C=C1c2cccc(OC)c2O[C@H](C(=O)OCC)[C@@H]1CCCCCC
IC50 [8]: 10.2 µM (active)

Cc1ccc(-c2ccc(=O)n(CC(=O)N3CCN(c4cc(Cl)ccc4C)CC3)n2)cc1
CC50 [7]: > 40 µM (active)

Cc1nn(-c2cc(Cl)ccc2N)c(=O)c2ccccc12
IC50 [8]: 63.2 µM (active)

COC(=O)CNC(=O)C1Nc2ccccc2C2C=CCC12 (stereo not given)
EC50 [9]: 173 µM (active)
EC50 [10]: > 300 µM (not active)

O=C(CSc1ccc(-c2ccccn2)nn1)N1CCCc2ccccc21
IC50 [4]: 20.8 µM (active)

O=C(Nc1cccc(-c2csc(Nc3ccc(Cl)cc3)n2)c1)c1cccc(C(F)(F)F)c1
CC50 [7]: 20.6 µM (active)

NC(=O)c1ccsc1NC(=O)COC(=O)Cc1nnc(O)c2ccccc12
IC50 [4]: > 79 µM (inactive)

Cc1cccc(NC(=O)CSC(N)=O)c1C
EC50 [11]: > 150 µM (inactive)
IC50 [2]: > 66 µM (inactive)
EC50 [12]: > 38 µM (not active)
IC50 [3]: > 66 µM (inactive)

Cc1ccc(C2C(C(=O)c3ccco3)=C(O)C(=O)N2c2nnc(C)s2)cc1 (stereo not given)
EC50 [9]: > 300 µM (inconclusive)
EC50 [10]: > 300 µM (not active)

C=CCOC(=O)C1=C[C@H](c2cn(C(C)=O)c3ccccc23)C[C@H](OCc2ccc(CO)cc2)O1
IC50 [4]: 10.3 µM (active)

O=C(CN1C2CCC1CC(NC(=O)C1CC1)C2)NCc1ccccc1 (stereo not given)
IC50 [1]: > 100 µM (inactive)

CCOc1ccc(C(=O)COC(=O)Cn2[nH]c(=O)c3ccccc3c2=O)cc1
IC50 [4]: > 79 µM (inactive)

O=C(Cc1ccccc1)N/N=C/c1ccc2cccc(O)c2n1
CC50 [7]: > 40 µM (active)

NC(=S)N/N=C/c1ccccc1OCCSc1ccc(Cl)cc1
EC50 [13]: 0.224 µM (active)
EC50 [14]: > 60 µM (not active)
CC50 [7]: 24.6 µM (active)

Oc1cccc2cc(Nc3ccccc3)cnc12
AC50 [15]: 1.4 µM (active)
AC50 [16]: 1.37 µM (active)
AC50 [17]: 4 µM (active)
AC50 [18]: 0.644 µM (active)

Cc1cc(C)c(S(=O)(=O)N2Cc3ccccc3-n3nncc3C2)c(C)c1
AC50 [15]: 5.53 µM (active)
AC50 [17]: 49.7 µM (active)
AC50 [18]: 4.36 µM (active)

N#CCC(=O)N/N=C/c1ccc(Sc2nc3ccccc3s2)o1
IC50 [8]: 9.4 µM (active)

O=C(NCc1ccc(F)c(F)c1)c1ccc(-c2ccc(F)c(F)c2)c2ccoc12
IC50 [1]: < 3.13 µM (active)

O=C(Nc1cccc(Oc2ccccc2)c1)C1Cc2c(-c3ccc4c(c3)OCO4)ccnc2O1 (stereo not given)
IC50 [1]: > 100 µM (inactive)

CC/N=c1\scc(-c2ccco2)n1/N=C/c1ccc(OC)c(O)c1
CC50 [7]: > 40 µM (active)

Cn1c(=O)[nH]c(=O)c2c1nc(N/N=C/C(Br)=C/c1ccccc1)n2CCO
EC50 [9]: 55.5 µM (active)
EC50 [10]: 206 µM (active)

C=CCn1cc/c(=N\C=C(C#N)C#N)c2ccccc21
EC50 [9]: > 300 µM (not active)
EC50 [10]: > 300 µM (not active)

Brc1ccc(-c2ccc(/C=N/Nc3nncc(-c4ccccc4)n3)o2)cc1
CC50 [7]: 20.7 µM (active)

O=C(Nc1ccc(Cl)cc1)Nc1ccc(Br)cn1
IC50 [1]: > 100 µM (inactive)

CN(C)CCCO[C@@H]1[C@H]2OC(C)(C)O[C@H]2O[C@@H]1[C@H](O)CO [AMIPRILOSE HYDROCHLORIDE]
IC50 [1]: > 100 µM (inactive)

O=c1[nH]c2cc(Cl)c(Br)cc2o1 [BROMCHLORENONE]
IC50 [1]: > 100 µM (inactive)

Reference: ChEMBL document CHEMBL1201862, “PubChem BioAssay data set” (2004)
